According to PubChem BioAssay (NCI):
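Test compounds were applied to cells in 96-well plates for 48 hours at 5 doses. Abbreviation: GI50, concentration required for 50% inhibition of growth. TGI: total growth inhibition.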

Tests used:
Assay in all cases: NCI tumour cell line growth inhibition, 48 h
[1] = tested on: SW-620 colon
[2] = tested on: HOP-92 NSCLC
[3] = tested on: PC-3 prostate
[4] = tested on: MDA-MB-435
[5] = tested on: HS 578T breast
[6] = tested on: NCI-H23 lung
[7] = tested on: NCI-H460 lung
[8] = tested on: NCI-H522 lung
[9] = tested on: SR leukemia
[10] = tested on: SK-MEL-5 melanoma

| Structure (SMILES) | GI50 [1] [nM] | TGI [1] [µM] | GI50 [2] [µM] | TGI [2] [µM] | GI50 [3] [nM] | TGI [3] [µM] | GI50 [4] [µM] | TGI [4] [µM] | GI50 [5] [nM] | TGI [5] [µM] | GI50 [6] [µM] | TGI [6] [µM] | GI50 [7] [nM] | TGI [7] [µM] | GI50 [8] [µM] | TGI [8] [µM] | GI50 [9] [µM] | TGI [9] [µM] | GI50 [10] [nM] | TGI [10] [µM] |
| --- | --- | --- | --- | --- | --- | --- | --- | --- | --- | --- | --- | --- | --- | --- | --- | --- | --- | --- | --- | --- |
| CNCc1ccc(-c2[nH]c3cc(F)cc4c3c2CCNC4=O)cc1 | 16100 | 60.4 | 17.9 | > 69.5 | 23600 | > 100 | 16.5 | 36.1 | 19500 | 67.9 | 20.8 | > 56.7 | 14900 | 42.3 | 19 | 39.4 | 9.51 | 44 | 14700 | 28.1 |
| COC(=O)c1ccc2[nH]c(O)c(C(=Nc3ccc(N(C)C(=O)CN4CCN(C)CC4)cc3)c3ccccc3)c2c1 | 795 | 4.27 | 9.78 | 39.7 | 1040 | 25.5 | 0.89 | 4.02 | 266 | 4.57 | 1.29 | 4.14 | 1870 | 5.09 | 1.49 | 4.41 | 0.224 | 10.2 | 1350 | 2.69 |
| CC1=C2[C@@H](CC1)[C@]1(C)O[C@@](C3CC3)(C[C@H]1OC(=O)CO)[C@H]2OC(=O)/C=C/c1ccccc1 | 19100 | 36.7 | 13.4 | 26.7 | 13000 | 28.4 | 16.1 | 30.6 | < 15.3 | 0.845 | 16.6 | 36 | 16600 | 33.1 | 15.9 | 32.4 | 13.5 | 39.2 | 16700 | 30.5 |
| COc1cc(OC)cc(-c2ccc(-c3ccc(C(=N)N)cn3)s2)c1 | 1910 | 3.8 | 1.7 | 3.52 | 1880 | 3.63 | 1.73 | 3.15 | 1860 | 3.98 | 1.78 | 3.5 | 1870 | 3.45 | 2.27 | 5.59 | 3.51 | 10.9 | 1770 | 3.16 |
| C#Cc1cccc(NC(=O)C2CCCN(C(=O)CCl)C2)c1 (centres undefined) | 29500 | > 82.5 | > 82.5 | > 82.5 | > 82500 | > 82.5 | 69.8 | > 82.5 | > 82500 | > 82.5 | 21.8 | > 82.5 | > 82500 | > 82.5 | 14.7 | 32.7 | 24.2 | > 82.5 | 29700 | > 82.5 |
| CNCc1cccc2c1OCCOCCOCCC(C)S(=O)(=O)c1ccc(cc1)-c1cnc(N)c(n1)C(=O)N2 (centres undefined) | 2130 | 10.7 | 11.5 | 25 | 1490 | 17.9 | 1.57 | 3.3 | 602 | 3.09 | 3.71 | 18.9 | 1120 | 2.73 | 1.23 | 3.25 | 0.0861 | 4.71 | 2050 | 4.58 |
| O=c1nc2[nH]c3c(-c4n[nH]c(=O)[nH]c4=O)cccc3c2n[nH]1 | > 100000 | > 100 | 78.1 | > 100 | > 100000 | > 100 | > 100 | > 100 | > 100000 | > 100 | > 100 | > 100 | > 100000 | > 100 | > 100 | > 100 | > 100 | > 100 | > 100000 | > 100 |
| COc1ccc(/C(C)=C(\c2ccc(Cl)cc2)c2ccc(OCCN3CCCCCC3)cc2)cc1F | 2140 | 4.81 | 2.57 | 6.62 | 3800 | 15 | 2.78 | 5.77 | 2690 | 6.51 | 3.07 | 10.4 | 2560 | 5.4 | 3.92 | 9.71 | 2.26 | 12.3 | 2890 | 5.27 |
| Cc1ccc(S(=O)(=O)N2CCC(C(=O)O)(c3ccccc3)CC2)cc1 | – | > 100 | – | > 100 | – | > 100 | – | > 100 | – | > 100 | – | > 100 | – | > 100 | – | > 100 | – | > 100 | – | > 100 |
| O=C(OC[C@@H]1CO1)c1cccc2c(=O)c3ccccc3[nH]c12 | 64.9 | 1.16 | 0.444 | 5.02 | 381 | > 21.8 | 0.281 | 1.24 | 499 | 3.78 | 0.288 | 1.25 | 380 | 1.75 | 0.421 | 2.2 | 0.0604 | – | 210 | 0.473 |
| CC1(C)CC[C@]2(C(=O)O)CC[C@]3(C)C(=CC[C@@H]4[C@@]5(C)C/C(=C/c6ccco6)C(=O)C(C)(C)[C@@H]5CC[C@]43C)[C@@H]2C1 | 3820 | 18.2 | 2.69 | 12.2 | 2620 | 14.9 | 3.63 | 14.1 | 5190 | 54.1 | 3.13 | 17.6 | 3380 | 12.2 | 3.22 | 24.3 | 4.04 | 52.4 | 2510 | 8.74 |
| Nc1ncc(C2[C@H](CNC(=O)c3cc(Br)c[nH]3)C(CNC(=O)c3cc(Br)c[nH]3)[C@@H]2c2cnc(N)[nH]2)[nH]1 (some centres undefined) | > 50000 | > 50 | 43.7 | > 50 | > 50000 | > 50 | > 50 | > 50 | 40100 | > 50 | > 50 | > 50 | > 50000 | > 50 | > 50 | > 50 | 25.1 | > 50 | > 50000 | > 50 |
